Assay results: patent publication US20060264371A1, “Treatment” (Proximagen Ltd., priority 2005, published 2006)
“Also recorded” adds a separate entry of the source.

Tests used:
Type in all cases: cell-based, rat
[1] = test system: TH positive cells in primary ventral mesencephalic cell cultures; assay: MPP+ dose response on TH positive cell number in primary ventral mesencephalic cell cultures; conditions: 24 hrs exposure, 0.1-10 μM MPP+, n=3; read-out: EC50, TH positive (dopaminergic) cell death
Experimental: (§1) Primary ventral mesencephalic cell cultures: Primary cell cultures were prepared by dissecting out the ventral mesencephalon from E14 rat foetuses. The dissected tissue was pooled and incubated with 0.1% Trypsin solution. This solution was then removed and replaced with Dulbecco's modified Eagles medium (DMEM) containing 10% foetal bovine serum (FBS) and 0.25% penicillin-streptomycin-neomycin (PSN), and the tissue centrifuged for 1 minute at 2000 rpm at room temperature. The supernatant was then removed, fresh medium was added and the tissue mechanically dissociated using increasing fine bore fire-polished Pasteur pipettes. Cell density was assessed using a haematocytometer and cells were plated in culture medium containing 10% FBS and 0.25% PSN at a density of 1-1.5×10^5 on sterile coverslips coated with 0.01% poly-D-lysine. After 4 days the culture medium was removed and replaced with fresh serum free DMEM prior to treatment with MPP+ or OPN. […]
MPP+ dose response: MPP+ was dissolved in sterile PBS and the primary cell cultures were incubated for 24 hrs with one of the following concentrations of MPP+ : 0.1, 0.5, 1, 2, 5, 10 μM MPP+ or vehicle (PBS). […] An EC50 was calculated (3.076±0.56) and a high (10 μM) or low (2 μM) MPP+ concentration was used to investigate the role of OPN in dopaminergic cell survival. […]

[2] = test system: TH positive cells in primary ventral mesencephalic cultures; assay: Survival of TH positive cells in primary ventral mesencephalic cultures without MPP+ treatment; conditions: 24 hrs incubation, no toxin; listed as OPN
Experimental: as §1
(§2) Tyrosine hydroxylase (TH) immunohistochemistry: The culture medium was removed from the cells and the coverslips were fixed in 4% paraformaldehyde prior to peroxidase detection of TH using the ABC immunohistochemical method. Coverslips were mounted and examined using a Zeiss Axiophot microscope at a 50× magnification and the number of TH positive cells on each coverslip was manually counted in four fields chosen at random (total area: 8 mm^2).

[3] = test system: TH positive cells in primary ventral mesencephalic cultures; assay: Survival of TH positive cells in primary ventral mesencephalic cultures with MPP+ treatment; conditions: for concentration of maximal efficacy in increasing TH positive cell survival: lowest concentration used; for effect on survival/death of TH positive cells: 24 hrs pretreatment
Experimental: Primary ventral mesencephalic cell cultures: Primary cell cultures were prepared by dissecting out the ventral mesencephalon from E14 rat foetuses. The dissected tissue was pooled and incubated with 0.1% Trypsin solution. This solution was then removed and replaced with Dulbecco's modified Eagles medium (DMEM) containing 10% foetal bovine serum (FBS) and 0.25% penicillin-streptomycin-neomycin (PSN), and the tissue centrifuged for 1 minute at 2000 rpm at room temperature. The supernatant was then removed, fresh medium was added and the tissue mechanically dissociated using increasing fine bore fire-polished Pasteur pipettes. Cell density was assessed using a haematocytometer and cells were plated in culture medium containing 10% FBS and 0.25% PSN at a density of 1-1.5×10^5 on sterile coverslips coated with 0.01% poly-D-lysine. After 4 days the culture medium was removed and replaced with fresh serum free DMEM prior to treatment with MPP+ or OPN. Each treatment was done in triplicate per experiment and each series of experiments was repeated a further 2 times to give a final n=3.
Manipulation of the OPN system: Cultures were incubated with one of the following treatments for 24 hrs prior to MPP+ administration (either 10 μM or 2 μM MPP+): OPN protein (1, 5, 10, 25, 50 & 100 ng/ml), anti-OPN antibody (26.5, 53, 265, 530 ng/ml and 1.325, 2.65 μg/ml), anti-αv or anti-β3 integrin receptor subunit antibody (0.02, 0.04, 0.2, 0.4, 1 & 2 μg/ml). Control groups received no MPP+ treatment.
as §2

Question: `C[n+]1ccc(-c2ccccc2)cc1` [MPP+] was tested. Which EC50 [1] did it give?
Answer: 3.08 ± 0.56 µM

Question: Which “effect on viability of TH positive cells” value [2] does the source give for “OPN protein fragment: 15 amino acid fragment of rat osteopontin (SEQ ID NO: 8) containing the RGD αvβ3 integrin binding site (TVDVPDGRGDSLAYG; listed as Rattus norvegicus)” here?
Answer: not found to affect the viability; also recorded: no effect

Question: And the “concentration of maximal efficacy in increasing TH positive cell survival” value ([3]; 2 μM MPP+)?
Answer: 1 ng/mL

Question: What about the “concentration of maximal efficacy in increasing TH positive cell survival” value ([3]; 10 μM MPP+) of the same compound?
Answer: 1 ng/mL

Question: And the “effect on survival/death of TH positive cells” value (shortened to “effect on survival/death”) ([3]; then 2 μM MPP+ for 24 hrs)?
Answer: almost completely protected dopaminergic cells

Question: What about the “effect on survival/death” value ([3]; then 2 μM MPP+ for 24 hrs, listed as OPN) of the same compound?
Answer: increased TH cell survival

Question: And the “effect on survival/death” value ([3]; then 10 μM MPP+ for 24 hrs)?
Answer: almost completely protected dopaminergic cells

Question: What about the “effect on survival/death” value ([3]; then 10 μM MPP+ for 24 hrs, listed as OPN) of the same compound?
Answer: increased survival of TH positive cells
